Measurements: PubChem BioAssay (NCI)
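48-hour exposure; five concentrations; linearly interpolated endpoints. GI50 is the concentration that inhibits growth by half. The concentration for full growth arrest is given as TGI.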

Key:
Experiment in all cases: NCI-60 cell line screen, 48 h
[1] = system: BT-549 breast
[2] = system: COLO 205 colon
[3] = system: LOX IMVI melanoma
[4] = system: NCI-H226 lung
[5] = system: NCI-H522 lung
[6] = system: OVCAR-4 ovarian
[7] = system: PC-3 prostate
[8] = system: SF-268 CNS
[9] = system: SK-MEL-2 melanoma
[10] = system: T-47D breast

CC[C@@]1(O)C(=O)OCc2c1cc1n(c2=O)Cc2c-1nc1cc(F)c(C)c3c1c2[C@@H](NC(=O)CO)CC3
GI50 [1]: < 0.0118 µM | TGI [1]: 0.73 µM | GI50 [2]: 0.127 µM | TGI [2]: 4.16 µM | GI50 [3]: < 0.01 µM | TGI [3]: 0.0314 µM | GI50 [4]: < 0.0128 µM | TGI [4]: 0.117 µM | GI50 [5]: < 0.01 µM | TGI [5]: 0.328 µM | GI50 [6]: 0.206 µM | TGI [6]: > 100 µM | GI50 [7]: 0.0985 µM | TGI [7]: > 100 µM | GI50 [8]: < 0.01 µM | TGI [8]: 1.95 µM | GI50 [9]: 0.318 µM | TGI [9]: 2.63 µM | GI50 [10]: < 0.01 µM

CC(C)C1=CC2=C(C(=O)C1=O)C13CCCC(C)(C)C1CC2OC3=O (stereo not drawn)
TGI [1]: 37.4 µM | TGI [2]: 34.8 µM | TGI [3]: 39.7 µM | TGI [4]: 49.2 µM | TGI [5]: 30.6 µM | TGI [6]: 40.6 µM | TGI [7]: 63.2 µM | TGI [8]: 55.8 µM | TGI [9]: 47.4 µM | TGI [10]: 48.4 µM

O=C(/C=C/C=C/c1ccc2c(c1)OCO2)N/N=C\c1ccc(O)cc1O
GI50 [1]: 2.25 µM | TGI [1]: 7.49 µM | GI50 [2]: 2.31 µM | TGI [2]: 13.8 µM | GI50 [3]: 1.18 µM | TGI [3]: 10.1 µM | GI50 [4]: 2.78 µM | TGI [4]: 11.3 µM | GI50 [5]: 2.9 µM | TGI [5]: 15.3 µM | GI50 [6]: 0.459 µM | TGI [6]: 9.82 µM | GI50 [7]: 2.86 µM | TGI [7]: 23.1 µM | GI50 [8]: 1.73 µM | TGI [8]: 17.1 µM | GI50 [9]: 5.51 µM | TGI [9]: 27 µM | GI50 [10]: 2.55 µM | TGI [10]: 24 µM

COc1ccc(/C=C\c2cc(OC)c(OC)c(OC)c2)c(NS(=O)(=O)c2ccc(F)cc2)c1O
GI50 [1]: 0.0619 µM | TGI [1]: 16.8 µM | GI50 [2]: 1.93 µM | TGI [2]: 7.94 µM | GI50 [3]: 0.142 µM | TGI [3]: 36.8 µM | GI50 [4]: 0.142 µM | GI50 [5]: 0.222 µM | TGI [5]: 15 µM | GI50 [6]: 0.552 µM | TGI [6]: > 100 µM | GI50 [7]: 0.0428 µM | TGI [7]: > 70.8 µM | GI50 [8]: 0.224 µM | TGI [8]: > 100 µM | GI50 [9]: 0.184 µM | TGI [9]: > 100 µM | GI50 [10]: 38.5 µM | TGI [10]: > 100 µM

Nc1c(C(=O)Nc2cccc(C(F)(F)F)c2)sc2nc3c(cc12)CCCCCC3
GI50 [1]: 2.54 µM | TGI [1]: 9.59 µM | GI50 [2]: 3.07 µM | TGI [2]: 14 µM | GI50 [3]: 3.04 µM | TGI [3]: 11.2 µM | GI50 [4]: 1.76 µM | TGI [4]: 11.9 µM | GI50 [5]: 4.09 µM | TGI [5]: 26.9 µM | GI50 [6]: 1.61 µM | TGI [6]: 4 µM | GI50 [7]: 4.31 µM | TGI [7]: 32.7 µM | GI50 [8]: 2.36 µM | TGI [8]: 6.77 µM | GI50 [9]: 4.35 µM | TGI [9]: 18.2 µM | GI50 [10]: 1.35 µM | TGI [10]: 6.2 µM
